Reference: PubChem BioAssay (NCI)
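96-well plates; 48 h exposure; 5 concentrations. Endpoints by linear interpolation between flanking doses. Not reached: highest tested concentration assigned. At the GI50, growth is halved. The concentration for full growth arrest is given as TGI.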

Legend:
Assay in all cases: growth of human tumour cells (NCI), 48 h
ACHN renal = system: ACHN renal
BT-549 breast = system: BT-549 breast
DU-145 prostate = system: DU-145 prostate
HCT-116 colon = system: HCT-116 colon
NCI-H23 lung = system: NCI-H23 lung
SN12C renal = system: SN12C renal
SNB-75 CNS = system: SNB-75 CNS
SR leukemia = system: SR leukemia
OVCAR-4 ovarian = system: OVCAR-4 ovarian
T-47D breast = system: T-47D breast

SMILES	GI50 (ACHN renal) [µM]	TGI (ACHN renal) [µM]	GI50 (BT-549 breast) [µM]	TGI (BT-549 breast) [µM]	GI50 (DU-145 prostate) [µM]	TGI (DU-145 prostate) [µM]	GI50 (HCT-116 colon) [µM]	TGI (HCT-116 colon) [µM]	GI50 (NCI-H23 lung) [µM]	TGI (NCI-H23 lung) [µM]	GI50 (SN12C renal) [µM]	TGI (SN12C renal) [µM]	GI50 (SNB-75 CNS) [µM]	TGI (SNB-75 CNS) [µM]	GI50 (SR leukemia) [µM]	TGI (SR leukemia) [µM]	TGI (OVCAR-4 ovarian) [µM]	GI50 (OVCAR-4 ovarian) [µM]	GI50 (T-47D breast) [µM]	TGI (T-47D breast) [µM]
CN(c1cccc(C(=O)O)c1)c1cc(O/N=[N+](\[O-])N(C)C)c([N+](=O)[O-])cc1[N+](=O)[O-]	> 100	> 100	> 100	> 100	> 100	> 100	> 100	> 100	> 100	> 100	> 100	> 100	> 100	> 100	56.4	> 100	–	–	–	–
CC1(Cl)C(=O)NC(=O)N([C@H]2C[C@H](O)[C@@H](CO)O2)C1N=[N+]=[N-] (some centres not stated)	–	> 100	–	–	–	–	–	> 100	–	> 100	–	> 100	–	> 100	–	> 100	> 100	–	–	–
COc1ccc(-c2cc(=O)c3c(O)c(O)c(OC)cc3o2)cc1O	–	> 100	–	–	–	–	–	> 100	–	> 100	–	> 100	–	> 100	–	> 100	> 100	–	–	–
COc1ccc(C2=Nn3c(nnc3-c3ccc(F)c(Cl)c3)SC2)cc1	> 100	> 100	> 100	> 100	> 100	> 100	61.6	> 100	> 100	> 100	5.53	> 100	63.3	> 100	–	–	> 100	> 100	> 100	> 100
O=C(NCCCN1CCN(CCCNC(=O)c2cccc3ccccc23)CC1)c1cccc2ccccc12	–	> 100	–	–	–	–	–	> 100	–	> 100	–	> 100	–	41.7	–	–	> 100	–	–	–
Cc1cc(NS(=O)(=O)c2ccc(NC(=O)c3ccc(Cl)c4c(Nc5ccc(S(=O)(=O)Nc6cc(C)on6)cc5)c5ccccc5nc34)cc2)no1	–	53.7	–	–	–	–	–	27.4	–	–	–	41.7	–	24.5	–	–	81.8	–	–	–
COC(=O)c1csc(-c2csc(CCNC(=O)OC(C)(C)C)n2)n1	–	> 100	–	> 100	–	> 100	–	> 100	–	> 100	–	> 100	–	> 100	–	> 100	–	–	–	–
CC1=CC(=O)NP(=O)(Oc2ccc(Cl)cc2)N1 (configuration not stated)	–	> 100	–	–	–	–	–	> 100	–	> 100	–	> 100	–	> 100	–	> 100	> 100	–	–	–
O=C(c1ccc(Cl)cc1Cl)N1CCN(C(=O)c2ccc(Cl)cc2Cl)C1=S	21.3	45.7	21.1	54.2	30.6	98.9	23.5	57.5	19.8	43.4	18.1	34.4	22.3	61.7	–	–	80.9	25.8	19.5	62.6
CNc1c2ccccc2nc2occ(Cl)c12	24	70.5	–	–	41.5	> 100	17.1	40.5	40.9	> 100	52.6	> 100	–	–	18.3	50.6	> 100	29.4	66.1	> 100
COc1cc(C[C@H]2COC(=O)[C@]2(O)Cc2ccc(OCc3ccccc3)c(OC)c2)ccc1OCc1ccccc1	26.1	> 100	28.1	> 100	85.9	> 100	16.8	> 100	30.6	> 100	12.5	> 100	> 100	> 100	–	–	> 100	> 100	12.1	> 100
COc1cc(/C=C/C(=O)c2c(C)n([O-])c3ccccc3[n+]2=O)cc(OC)c1OC	10.8	22.7	3.18	13.5	2.17	13.5	2.56	13.8	–	–	5.82	20.3	12.5	30.8	2.75	14.9	> 100	10.8	8.71	28.7
CCCCC[C@@H]1CCCC2NC(CCCCCO[Si](c3ccccc3)(c3ccccc3)C(C)(C)C)CCC21 (some centres not stated)	–	26.5	–	–	–	–	–	23.7	–	31.7	–	28.4	–	30	–	–	21	–	–	–
COCN1COCN(C)C1=O	–	> 100	–	–	–	–	–	> 100	–	> 100	–	> 100	–	> 100	–	–	> 100	–	–	–
COc1ccc(-c2cn(C)c3c2-n2cccc2C3=O)cc1O	5.05	22.5	3.99	23.2	12.5	32.9	11.1	26.5	3.22	16.5	10.8	41.2	–	–	–	–	> 100	25.6	4.78	28.9
COc1ccccc1/C=C1\C(=O)N(C(=O)Cc2ccccc2)N=C1C	–	> 100	–	–	–	–	–	> 100	–	> 100	–	> 100	–	> 100	–	> 100	> 100	–	–	–
O=C1/C(=C/c2ccc(F)cc2)COc2ccc(O)c(O)c21	1.43	2.89	2.96	8.73	3.02	43.6	1.87	4.98	2.65	13.7	1.26	3.79	1.71	> 100	–	–	> 100	2.77	2.4	9.67
C=CCCC(O)c1cc(C)c(O)c(C)c1 (configuration not stated)	–	> 100	–	–	–	–	–	–	–	> 100	–	> 100	–	> 100	–	–	–	–	–	–
Cn1c(=O)nc2n(-c3ccc(Br)cc3)c3ccccc3nc-2c1=O	–	13.2	–	–	–	–	–	16.3	–	4.2	–	17.9	–	19.4	–	–	14.6	–	–	–
